Earlier results on eleven molecules are cited in US20050255458A1, “Drug discovery assays based on the biology of chronic disease” (priority 2002, published 2005).

The subject of one series is ERK1 and ERK2. The note with it: 20 μm, 15 min; cited from earlier work.
A further series relates to ERK1/2. As to conditions: cited studies, various cells; cited from earlier work.
The subject of series [1] is third intron enhancer of the TNFα gene. The note with it: PBMC stimulated with TPA; cited from earlier work.
In series [2] the test system is ML-1 human myeloblastic leukemic cells. As to conditions: cited from earlier work; for increase in ERK activity: 0.3 ng/ml.
Series [3] concerns ERK. As to conditions: cited from earlier work.
The subject of series [4] is ERK. The note with it: LNCaP; cited from earlier work.
Series [5] deals with AR gene. As to conditions: cited from earlier work.
The subject of another series is anagen hair follicles. As to conditions: cited from earlier work.
The conditions of series [6]: 0.3-0.5 mmol/kg/day, from day 56; cited from earlier work.
The test system of a further series is TF. As to conditions: cited from earlier work.
In series [7] the test system is AR gene. The note with it: 50 μg/ml, 4 hours, 21-day-old rats; cited from earlier work.
Series [8] concerns LS 174T colon cancer cells. The note with it: after the fourth day of treatment; cited from earlier work.
The subject of series [9] is metallothionein (MT). As to conditions: cited from earlier work.
Series [10] has as its system metallothionein (MT). As to conditions: cited from earlier work. The source holds these as a separate data set.
The test system of series [11] is metallothionein (MT). As to conditions: non-transformed hepatocytes; cited from earlier work.
For the next series, the system named is PFK-2/FBPase-2. The note with it: diabetic animals, up to 15 days; cited from earlier work.
For series [12] the following is noted: obese Zucker rats; cited from earlier work.
In series [13] the test system is obese (fa/fa) Zucker rats. The note with it: chronic ICV microinjection; cited from earlier work.
The test system of series [14] is genetically obese ob/ob or db/db mice. The note with it: low dose injection, for several hours; cited from earlier work.
Another series concerns VCAM-1. As to conditions: cited from earlier work.
The test system of the next series is monocytes on VCAM-1. The note with it: cited from earlier work.
A further series has as its target AR (Homo sapiens, UniProt P10275). The note with it: cited from earlier work.
Series [15] has as its target T1, long form leptin receptor (Rattus norvegicus, UniProt Q62959).
T1 construct: expressed in transfected cells; host or cells: Chinese hamster ovary (CHO) cells
T1 sequence (Q62959 22-1162): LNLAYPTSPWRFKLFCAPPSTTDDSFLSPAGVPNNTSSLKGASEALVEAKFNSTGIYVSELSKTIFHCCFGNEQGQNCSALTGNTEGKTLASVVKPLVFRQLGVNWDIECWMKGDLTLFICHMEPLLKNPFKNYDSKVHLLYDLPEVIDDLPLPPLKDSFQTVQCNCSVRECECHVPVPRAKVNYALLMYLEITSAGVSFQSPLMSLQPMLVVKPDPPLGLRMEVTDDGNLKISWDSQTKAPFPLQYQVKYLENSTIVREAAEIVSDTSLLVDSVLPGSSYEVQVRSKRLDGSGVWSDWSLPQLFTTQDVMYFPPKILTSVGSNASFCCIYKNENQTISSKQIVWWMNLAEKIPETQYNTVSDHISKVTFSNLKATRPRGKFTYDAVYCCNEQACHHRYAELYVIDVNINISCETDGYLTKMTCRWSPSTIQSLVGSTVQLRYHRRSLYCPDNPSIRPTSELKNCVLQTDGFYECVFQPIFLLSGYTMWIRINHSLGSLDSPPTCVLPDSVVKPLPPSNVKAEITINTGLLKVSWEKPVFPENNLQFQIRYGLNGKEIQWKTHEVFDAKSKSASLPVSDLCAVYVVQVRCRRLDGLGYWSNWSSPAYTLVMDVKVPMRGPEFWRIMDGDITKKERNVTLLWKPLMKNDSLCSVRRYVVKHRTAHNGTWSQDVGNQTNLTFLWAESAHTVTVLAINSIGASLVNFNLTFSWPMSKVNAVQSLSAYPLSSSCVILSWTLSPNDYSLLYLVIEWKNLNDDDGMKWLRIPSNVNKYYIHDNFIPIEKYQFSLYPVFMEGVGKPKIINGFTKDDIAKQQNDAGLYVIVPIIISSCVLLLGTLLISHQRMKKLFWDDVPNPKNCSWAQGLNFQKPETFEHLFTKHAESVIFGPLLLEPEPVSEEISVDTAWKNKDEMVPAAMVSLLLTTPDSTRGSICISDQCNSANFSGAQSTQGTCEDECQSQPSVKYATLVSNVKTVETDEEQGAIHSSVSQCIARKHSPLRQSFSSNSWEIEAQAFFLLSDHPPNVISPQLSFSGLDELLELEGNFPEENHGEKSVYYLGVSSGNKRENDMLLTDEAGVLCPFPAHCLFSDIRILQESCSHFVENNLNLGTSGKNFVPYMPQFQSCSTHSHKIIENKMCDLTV
As to conditions: CHO cells; cited from earlier work.

Another series concerns the target PTP1B (Homo sapiens, UniProt P18031). As to conditions: Huyer 1997; cited from earlier work.

Several values for one entry are separate records, joined by “and”; a condition that tells them apart may be missing. Equal values may be shown once. Read-outs that look alike come from different tables or passages of the source.

AR, sequence (P10275 whole entry): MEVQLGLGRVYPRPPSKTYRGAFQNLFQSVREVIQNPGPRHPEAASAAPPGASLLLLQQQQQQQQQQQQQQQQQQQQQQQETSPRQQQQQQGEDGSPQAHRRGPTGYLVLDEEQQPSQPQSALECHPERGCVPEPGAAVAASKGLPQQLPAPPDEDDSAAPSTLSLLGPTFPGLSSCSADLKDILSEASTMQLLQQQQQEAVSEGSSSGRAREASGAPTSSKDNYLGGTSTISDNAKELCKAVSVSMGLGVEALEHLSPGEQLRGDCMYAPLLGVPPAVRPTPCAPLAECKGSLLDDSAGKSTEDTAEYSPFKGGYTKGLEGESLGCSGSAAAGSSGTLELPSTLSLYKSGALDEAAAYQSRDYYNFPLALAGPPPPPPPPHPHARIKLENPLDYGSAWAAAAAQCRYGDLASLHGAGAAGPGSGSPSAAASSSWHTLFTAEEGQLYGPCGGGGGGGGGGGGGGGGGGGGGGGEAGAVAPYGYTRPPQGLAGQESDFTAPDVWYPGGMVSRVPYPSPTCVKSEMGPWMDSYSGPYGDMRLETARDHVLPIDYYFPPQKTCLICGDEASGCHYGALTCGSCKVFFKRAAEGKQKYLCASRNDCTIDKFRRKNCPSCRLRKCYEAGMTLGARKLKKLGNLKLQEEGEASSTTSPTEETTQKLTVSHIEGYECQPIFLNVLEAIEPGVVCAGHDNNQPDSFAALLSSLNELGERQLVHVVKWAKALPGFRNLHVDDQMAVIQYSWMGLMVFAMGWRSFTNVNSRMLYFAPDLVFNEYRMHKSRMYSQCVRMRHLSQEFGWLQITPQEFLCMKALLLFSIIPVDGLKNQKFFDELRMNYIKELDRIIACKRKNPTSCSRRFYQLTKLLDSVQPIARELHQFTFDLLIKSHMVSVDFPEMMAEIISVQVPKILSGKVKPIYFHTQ
PTP1B, sequence (P18031 whole entry, species assumed): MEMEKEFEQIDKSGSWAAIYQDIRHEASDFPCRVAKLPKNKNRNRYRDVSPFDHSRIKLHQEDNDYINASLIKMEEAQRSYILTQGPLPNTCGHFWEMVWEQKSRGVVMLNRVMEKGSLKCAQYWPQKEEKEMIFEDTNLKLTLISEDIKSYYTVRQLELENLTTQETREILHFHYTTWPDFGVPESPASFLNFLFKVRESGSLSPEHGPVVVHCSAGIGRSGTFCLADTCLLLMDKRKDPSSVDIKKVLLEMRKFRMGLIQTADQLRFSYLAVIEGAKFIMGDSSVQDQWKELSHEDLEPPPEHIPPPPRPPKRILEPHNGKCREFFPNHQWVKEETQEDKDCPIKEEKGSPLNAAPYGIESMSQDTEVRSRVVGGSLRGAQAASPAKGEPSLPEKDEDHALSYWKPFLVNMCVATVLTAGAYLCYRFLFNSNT

In the case of `CCCCCC1OC1CC=CCC=CCC=CCCCC(=O)O` (centres unmarked) [14,15-EET, 14,15-epoxyeicosatrienoic acid], the “ERK1 and ERK2 phosphorylation” value with ERK1 and ERK2 was “stimulated ERK1 and ERK2 phosphorylation”.

Take `CCCCCCCCCCCCCC(=O)O[C@@H]1[C@@H](C)[C@@]2(O)[C@@H](C=C(CO)C[C@]3(O)C(=O)C(C)=C[C@@H]23)[C@@H]2C(C)(C)[C@]12OC(C)=O` [TPA, phorbol 12-myristate 13-acetate]: the “phosphorylation of ERK1/2” value in the series on ERK1/2 is “phosphorylation of ERK1/2”. In addition, the “DNase-I hypersensitivity of the third intron enhancer of the TNFα gene” value in [1] was “enhanced”. Also, the “increase in ERK activity” value is on record as 6 fold in series [2] (1 h) and 4 fold in [2] (3 h). For the same molecule, the ML-1 proliferation entry in series [2] (3-day 0.3 ng/ml, then 3 days without TPA) is on record as “cease proliferation”. The ERK phosphorylation result with ERK [3] (Jurkat cells) is given as “increased ERK phosphorylation”. Further, the “Effect on [ERK^phos]” value with ERK [4] is “↑[ERK^phos]”. For the same molecule, the “mouse AR mRNA” value with AR gene [5] (Kumar 1998) is “increase in mouse AR mRNA”. Further, the “Effect on [mRNAAR]” value with AR gene [5] (Sertoli, 19 days old rats) was “↓[mRNAAR]”. Further, in the series on anagen hair follicles (6 days culture, A 23187 2 μM, TPA 1 μM, IL-1 100 ng per ml (Hoffmann 1997)), the hair growth result was “significantly inhibited hair growth”. For the same molecule, the IC50 with anagen hair follicles (suspension culture (Harmon 1995), read-out: inhibition of total cumulative hair follicle growth) is 1 nM.

Consider `Cc1occc(=O)c1[O-].Cc1occc(=O)c1[O-].[O]=[V+2]` [bis(maltolato)oxovanadium], for which the weight gain entry in [6] is “decreased weight gain”.

As for `C[C@@H]1C[C@@H]([C@H](O)CC2CC(=O)NC(=O)C2)C(=O)[C@@H](C)C1` [cycloheximide], the “AGE-alb induced TF mRNA” value with TF is on record as “completely suppressed”. In addition, the “increase in AR mRNA” value with AR gene [7] is 1.7±0.4 fold. In addition, the ERK phosphorylation result in the series with ERK [3] (oocytes) is given as “decreased ERK phosphorylation”.

`CCCC(=O)[O-].[Na+]` [sodium butyrate]: in the series on ERK1/2, the “phosphorylation of ERK1/2” value is given as “phosphorylation of ERK1/2”. Besides, the “growth of LS 174T cells” value in series [8] was “significant growth inhibition”. The “MT mRNA levels” value with metallothionein (MT) [9] (OC15 EC, OC15 END cells) is “increased MT mRNA levels”. Also, the “increase in MT mRNA” value with metallothionein (MT) [9] (OC15 carcinoma cells) was 20 fold; in the series with metallothionein (MT) [11], 2-4 fold. The MT synthesis entry in the series on metallothionein (MT) [10] was “dose-dependent increase”.

Take `[O]=[V]([O-])([O-])[O-]` [vanadate, Vanadate (VO4^−3)]: in the series with ERK [3] (as general PTP inhibitors), the ERK activation result is reported as “activate ERK”. Besides, the “liver PFK-2/FBPase-2 mRNA content” value in the series on PFK-2/FBPase-2 is given as “progressive increase”. Moreover, in [12], the “decrease in plasma glucose” value was 36% and the “decrease in plasma insulin” value is reported as 80%.

Regarding “IL-1β: human recombinant IL-1β, an ERK agent”, the “decrease in nighttime food intake” value in series [13] was 66.1%. Moreover, the glucose blood levels entry in series [14] is on record as “normalization of glucose blood levels”. The “growth of isolated scalp hair” value in the series with anagen hair follicles (Xiong 1997) was “growth inhibition”.

For the molecule MCP-1: a chemokine, the “average percent of monocyte remaining bound” value is on record as 51% in the series with VCAM-1 (8.5 dyn/cm^2, 0-6.99 minutes of stimulation, 1 ng/ml); 67% in the series on VCAM-1 (8.5 dyn/cm^2, 7.0-13.99 minutes); 31% in the series on VCAM-1 (8.5 dyn/cm^2, 14.0-30.0 minutes); 36% with VCAM-1 (36 dyn/cm^2, 0-6.99 minutes); 16% in the series with VCAM-1 (36 dyn/cm^2, 14.0-30.0 minutes). Moreover, the Average velocity in the series with monocytes on VCAM-1 is recorded as 2.43 ± 1.36 μm/min.

As to “[^3H]methyltrienolone [[3H]methyltrienolone (R1881)]”, the Bmax at AR was 30.1 ± 4.3 fmol/mg protein and 26.8 ± 3.0 fmol/mg protein and 18.7 ± 4.4 fmol/mg protein.

Turning to “leptin: an ERK agent that binds the long form leptin receptor”, in series [15], the “tyrosine phosphorylation of STAT3 and ERK” value was “increased tyrosine phosphorylation of STAT3 and ERK”.

Turning to pervanadate, the PTP1B activity entry on PTP1B was “inhibition”.
